Results from article PMC7083880 (Nature Communications, 2020).

What was measured:
[1] = system: L5178Y TK+/− mouse lymphoma cells
Description: The idea was to reproduce the metabolizing conditions prevailing in the liver.
This was followed by a 24-h recovery period when the experiment was performed in the presence of Aroclor-induced rat liver S9 metabolizing mix (at 2% final concentration). […] The nuclei were then stained with Giemsa before counting the micronuclei among 1000 mononucleated cells.

HeLa cells [2] = assay: MTT colorimetric toxicity assay; assay type: cell-based; settings: STS 2µM, 24 h
Description: incubated in cell culture medium containing 0.5 mg/ml 3-(4,5-dimethylthiazol-2-yl)-2,5-diphenyltetrazolium bromide (MTT) for 2 h at 37°C. The cells were then incubated for 30 min at 37°C in the solubilization solution (isopropanol/1N HCl 23:1) before collecting the supernatant to measure the absorbance at 540 and 620 nm for the background.
Supplementary Figure 4. […] (A) HeLa cells were incubated with propidium iodide after […]
staurosporine (STS). (B) HeLa cells were incubated with MTT after treatment for 24 h with […]
The results presented are representative of two independent experiments at least. Error bar= S.D., p-values (p) were calculated using Student's t-test. Source data are provided as a Source Data file.
(also on this page, place not known: % dead Colorimetry measure (au) cells of) […]

HeLa cells [3] = assay: Toxicity assay: adenylate kinase activity in culture medium; assay type: cell-based, human; settings: 24 h; for Adenylate kinase activity in culture medium: STS 2µM
Description: The toxicity assay was performed 24 h after starting cell treatment. The cell culture supernatant was centrifuged at 6000×g for 10 min to pellet cells and cell debris. One-twentieth of the supernatant was then used to measure adenylate kinase activity according to the supplier’s protocol (Lonza Biosciences, Basel, Switzerland).

nonsense mutations = system: nonsense mutations; set-up: method as in PMID 28096517; settings: cited from earlier work

SMILES: O=P1(N(CCCl)CCCl)NCCCO1 (centres unmarked) [Cyclopho sphamide, cyclophosphamide]
- Micronucleated cells [1]: 60

SMILES: CN[C@@H]1C[C@H]2O[C@@](C)([C@@H]1OC)n1c3ccccc3c3c4c(c5c6ccccc6n2c5c31)C(=O)NC4 [STS, staurosporine, reference compound]
- MTT colorimetry measure (HeLa cells [2]; average): 0.183 au
- MTT colorimetry measure (HeLa cells [2]; experiment 1): 0.0455 au
- MTT colorimetry measure (HeLa cells [2]; experiment 2): 0.1825 au
- MTT colorimetry measure (HeLa cells [2]; experiment 3): 0.321 au
- Release of adenylate kinase, in words (HeLa cells [3]): released adenylate kinase
- Adenylate kinase activity in culture medium (HeLa cells [3]; average): 1755878
- Adenylate kinase activity in culture medium (HeLa cells [3]; experiment 1): 1822755
- Adenylate kinase activity in culture medium (HeLa cells [3]; experiment 2): 1498272
- Adenylate kinase activity in culture medium (HeLa cells [3]; experiment 3): 1946608

SMILES: Nc1ncnc(N[C@@H]2O[C@H](CO)[C@@H](O)[C@H]2O)c1[N+](=O)[O-] [clitocine, (2R,3R,4S,5R)-2-[(6-amino-5-nitropyrimidin-4-yl)amino]-5-(hydroxymethyl)oxolane-3,4-diol]
- Nonsense mutation correction compared to G418 (nonsense mutations): correct nonsense mutations more efficiently than G418
